According to patent publication US20030064989A1, “Inhibitors of cell proliferation, angiogenesis, fertility, and muscle contraction” (priority 2001, published 2003):
Several values for one entry are separate records, joined by “and”; a condition that tells them apart may be missing. Equal values may be shown once.

Legend:
[1] = tested on: chick chorioallantoic membrane (CAM); experiment: Chick chorioallantoic membrane (CAM) assay, CAM area
Description: The chick chorioallantoic membrane (CAM) assay is perhaps the most widely used assay for screening anti-angiogenic or growth inhibitory compounds (see, e.g. Ribatti et al., Int. J. Dev. Biol. 40:1189-1197 (1996)). Cell proliferation and angiogenesis were evaluated by measuring CAM area and BrdU labeling using the CAM assay as modified by Melkonian et al., J. Exp. Zool. (2001), in review. Fertilized chicken eggs were purchased from Hy-Line International (Lakeview, CA), then incubated at 37° C. at 85-90% relative humidity throughout the experiment. Experiments were done to evaluate cell proliferation, angiogenesis, and vascularization in CAMs between days 5 and 6 after fertilization. Albumin (2.5-3.0 cc) was removed on the fourth day after fertilization to drop the embryo away from the shell. Windows were then made in shells, and sealed with transparent tape to allow subsequent access to the CAM for experimental treatment. 200 μl of either EBSS-H or different concentrations of pure chemicals were added to the surface of each CAM at 10 AM on the fifth day after fertilization. A sham control group in which the window was opened and resealed was also included in each experiment. In all cases, the following five concentrations of test reagents were used, 5×10^−3 M, 5×10^−5 M, 5×10^−7M, 5×10^−9 M and 5×10^−11M. For 2-ethylpyridine and 3-ethylpyridine additional concentrations of 5×10^−12M, 5×10^−13M, 5×10^−14 M and 5×10^−15 M were used. For nicotine and nornicotine, concentrations of 5×10^−4 M, 5×10^−6 M, 5×10^−8 M and 5×10^−10 M were also used. Development was terminated at 10 AM on the sixth day after fertilization by fixing the embryo and the CAM with 3% glutaraldehyde in 0.1M cacodylate buffer (pH 7.4) for 2 hours at room temperature. A small volume of fixative was also injected under the CAM. The CAMs were later dissected from eggs, post-fixed in the same fixative for 24 hours at room temperature, then thoroughly rinsed in PBS.
At least 6 CAMs were used in each control and experimental group. Parameters which measure aspects of cell proliferation, angiogenesis, and vacularization were quantified for each CAM. These parameters include: (1) for cell proliferation—CAM area, BrdU labeling of nuclei; (2) for angiogenesis—blood vessel pattern, blood vessel area, blood vessel diameter, and blood vessel branching; (3) for vascularization—density of angiogenic clusters. The area of each CAM was measured by placing the CAMs in PBS in a Petri dish under a Wild-M5A dissecting microscope (Max ERB instrument Co., Burbank, CA), then measuring the longest and shortest length of each CAM with a ruler to the precision of 0.5 mm. The data were recorded into Excel spreadsheet. CAM area was calculated using the formula:
where A=longest length, B=longest width, π=3.14.
Means and standard deviations were then calculated for each control and treatment group. The treated group means were used to compare with control means to determine the effect of each chemical on CAM growth.
On the fifth day after fertilization, either EBSS-H or different concentrations of test chemicals were added to each CAM. A sham group in which windows were opened and resealed without adding any solution was also included to determine if the vehicle EBSS-H had any effect on CAM area. Development was terminated 24 hours later, and CAMs were measured as described in Materials and Methods.

[2] = tested on: hamster oviduct explants (infundibulum); experiment: Oocyte pickup rate (OPR) assay; assay type: cell-based, golden hamsters (Mesocricetus auratus)
Description: Hamsters were injected with 25 I.U. of human chorionic gonadotropin (hCG) on the evening of Day 4 of their estrous cycle. On the day of the experiment, approximately 12 hours after the injection of hCG, hamsters were sacrificed using CO2, and oviducts and ovaries were removed. During dissection the oviduct and ovary were separated. Ovaries were isolated in EBSS-HA and expanded follicles were poked with a dissecting needle to release the oocyte cumulus complexes (OCCs). Oocyte cumulus complexes were transferred to a fresh Petri dish and placed in EBSS-HA. The infundibulum was cut from the oviduct leaving part of the ampulla attached to function as a handle. […]
Oocyte cumulus complex pick-up rate was measured using hamster oviduct explants in an in vitro assay (Huang et al., 1997, supra; Knoll et al., 1998, supra; Talbot et al., 1998, supra). […] An oocyte cumulus complex was placed at the base of the infundibulum and the length of time needed for the complex to traverse a defined path to the ostium was recorded. […] Then the test smoke solution or chemical was added to the perfusion chamber and allowed to incubate for five minutes after which pickup-rate was measured again. […] Oocyte pickup-rate was measured again and this rate was recorded as the “recovery” measurement. […]

[3] = tested on: hamster oviduct explants (infundibulum); experiment: Ciliary beat frequency assay; assay type: cell-based, golden hamsters (Mesocricetus auratus)
Description: Ciliary beat frequency was measured using hamster oviduct explants in an in vitro assay (Knoll et al., 1998, supra; Talbot et al., 1998, supra). Perfusion chambers containing infundibula were placed on a Wild stereoscopic microscope (model BD-HF) and viewed at 50×. A video image was sent from the microscope to a Dell computer using a Hitachi camera and recorded using a VCR onto a Super VHS videotape. To measure cilia beat frequency the videotape was played back frame-by-frame. The VCR recorded 15 frames per second. Each frame represented a fraction of a cycle; the completion of a cycle was equivalent to one beat. Number of frames per cycle (or frames per beat) were measured and then converted into beats per second. Ten measurements were made for each infundibulum for each treatment group. Recordings were made for 40-60 seconds per region, which ensured an adequate amount of data for analysis.
For the ciliary beat frequency, oocyte pickup rate, and infundibular muscle contraction graphs, purified 3-ethylpyridine was purchased and dissolved in EBSS. A hamster infundibulum was exposed to a dose range of 9.33 e-7 to 9.33 e-4 mM (four dose groups total) for five minutes and oocyte pickup rate, ciliary beat frequency, and infundibular contraction were measured. […]

hamster infundibula = experiment: Infundibular muscle contraction assay; assay type: cell-based, golden hamsters (Mesocricetus auratus)
Description: The infundibular muscle contraction assay was developed after observing consistent infundibular contractions that slowed or ceased after treatment with mainstream smoke solutions. Perfusion chambers containing infundibula were placed on a Wild stereoscopic microscope (model BD-HF) and viewed at 50×. A video image was sent from the microscope to a Dell computer using a Hitachi camera and the infundibular contractions could be observed and measured on the computer monitor. As the infundibulum contracted, the image shown on the monitor moved a measurable distance. This distance was measured during each contraction by placing a ruler against the computer monitor. These values (in centimeters) were then converted to actual distance by capturing an image of a ruler under the microscope and converting the measured values to micrometers. Frequency was also measured by observing the contracting infundibula on the computer monitor. The number of times the infundibulum contracted per minute was recorded. Each parameter was measured four to six times per infundibulum per treatment group.
For the ciliary beat frequency, oocyte pickup rate, and infundibular muscle contraction graphs, purified 3-ethylpyridine was purchased and dissolved in EBSS. […]

[4] = CAM area, day 5-6 CAMs, 24 hours
[5] = five minutes, single infundibulum

SMILES: CCc1cccnc1 [3-ethylpyridine]
- lowest effective dose lower than that of the single pyridine ring ([1]; CAM area): 10 million
- LOAEL [1, 4]: 5.36e-10 mg/mL
- LOAEL (Molar) [1, 4]: 5 pM
- NOAEL (Molar) [1, 4]: 0.5 pM
- minimal effective concentration ([1]; Gallus gallus, 24 h, read-out: lowest effective dose on CAM area): 5e-06 µM and 5.4e-07 µg/mL
- concentration at which oocyte pickup rate was significantly inhibited [2, 5]: 9.33 e-7 mM
- reversibility of effect on OPR after the recovery period ([2]; recovery period): partially reversible
- concentration at which ciliary beat frequency was significantly inhibited [3, 5]: 9.33 e-7 mM
- CBF during the recovery period ([3]; recovery period): continued to decrease
- concentration at which infundibular muscle contraction rate was significantly inhibited (hamster infundibula; [5]): 9.33 e-7 mM
- reversibility of effect on contraction rate after the recovery period (hamster infundibula; recovery period): partially reversible
